Reference: patent US12622965B2, “Therapeutical tools and methods using temperature-sensitive receptors for treating blindness” (FRIEDRICH MIESCHER INSTITUTE FOR BIOMEDICAL RESEARCH, priority 2020, dated 2026)

Test system: rd1 cones
Experiment: two-photon calcium imaging of cone cell bodies and axon terminals in wholemount rd1 retinas
Assay type: cell-based, mouse
Text: To measure if NIR light drives responses in cones, the inventors performed two-photon calcium imaging of individual cone cell bodies and axon terminals in wholemount rd1 retinas in three conditions: first, rTRPV1 with 915 nm nanorods, second, rTRPV without nanorods and third, 915 nm nanorods without rTRPV1. To detect calcium signals, the inventors genetically targeted the calcium indicator GCaMP6s to cones via AAV that expresses GCaMP6s under a cone-specific promoter (ProA7). GCaMP6s was expressed in 67±5.1% of rd1 cones (n=12,813 cones mm−2, n=8635 GCaMP6s positive cones mm−2, mean±s.d).
Near-infrared (NIR) pulses were produced by two custom-made, single wavelength NIR diode lasers emitting at 915 nm or 980 nm, modelled after J. Yao, B. Liu, and F. Qin. […] Total laser power output, as a function of driving voltage, was measured by placing cannula (CFM14L20) and patch cable (M37L02) output at the entrance of an integrating sphere photodiode power sensor (Thorlabs, S142C) with a PM100D read-out unit. Oscilloscope read-out of laser response time was obtained by applying a step control voltage to the lasers. […]
For two-photon calcium imaging of mouse cone photoreceptors, wild-type and rd1 retinas were isolated in oxygenated Ringer's medium. […] Fluorescence was analyzed semi-online via custom-made software written in Python by Z. Raics (A. Drinnenberg et al. Neuron 99, 117-134 e111 (2018)). […]

## TRPV1.465-6x-His: rat TRPV1 channel with 6x-His epitope tag inserted in the first extracellular loop after amino acid 465; delivered by AAV
  reaction of rTRPV1 expressing cones to light without nanorods: did not react to light
